14 molecules from patent publication US20200277246A1, “TREATMENT METHOD, COMPOUNDS, AND METHOD OF INCREASING TRPV2 ACTIVITY” (THE FEINSTEIN INSTITUTE FOR MEDICAL RESEARCH, priority 2015, published 2020) can be followed below.

One experiment concerns the target T1, Trpv2 (Rattus norvegicus, UniProt Q9WUD2).
T1 sequence (Q9WUD2 1-761): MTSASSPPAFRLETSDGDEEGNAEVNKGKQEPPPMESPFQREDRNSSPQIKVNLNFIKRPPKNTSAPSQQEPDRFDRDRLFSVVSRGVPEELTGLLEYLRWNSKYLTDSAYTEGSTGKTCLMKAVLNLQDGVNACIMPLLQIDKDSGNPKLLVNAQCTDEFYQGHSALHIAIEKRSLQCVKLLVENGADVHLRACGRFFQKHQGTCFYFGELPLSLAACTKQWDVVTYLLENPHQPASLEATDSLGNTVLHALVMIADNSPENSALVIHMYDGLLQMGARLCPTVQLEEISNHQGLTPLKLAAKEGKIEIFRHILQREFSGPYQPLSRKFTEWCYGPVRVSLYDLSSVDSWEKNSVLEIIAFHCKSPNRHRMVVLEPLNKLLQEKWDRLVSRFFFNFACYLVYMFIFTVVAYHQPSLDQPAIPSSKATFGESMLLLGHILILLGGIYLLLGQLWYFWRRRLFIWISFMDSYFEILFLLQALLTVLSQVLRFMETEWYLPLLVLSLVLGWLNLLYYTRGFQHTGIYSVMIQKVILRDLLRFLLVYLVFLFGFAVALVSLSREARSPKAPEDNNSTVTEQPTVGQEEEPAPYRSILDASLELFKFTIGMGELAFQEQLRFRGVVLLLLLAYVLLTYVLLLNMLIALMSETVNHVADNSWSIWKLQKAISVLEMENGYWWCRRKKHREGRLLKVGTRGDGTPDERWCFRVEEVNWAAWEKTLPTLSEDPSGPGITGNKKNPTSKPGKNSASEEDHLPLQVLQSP
Briefly: Intracellular calcium influx (Fluo-4 NW) in DA FLS. Format: cell-based. More on the design: endogenous in cells; host or cells: fibroblast-like synoviocytes (FLS) from DA rats. The note with it: measured over 200 seconds; compared with O1821. Here is the method: Intracellular calcium influx was measured using the Fluo-4 NW calcium assay kit (Molecular Probes/Invitrogen) according to the manufacturer's instructions, as previously described (Laragione et al., “CXCL10 and its Receptor CXCR3 Regulate Synovial Fibroblast Invasion in Rheumatoid Arthritis,” Arthritis Rheum. 63 (11):3274-3283 (2011), which is hereby incorporated by reference in its entirety). Briefly, DA FLS were plated at a density of 4,500 cells/well in a 96-well plate (100 μl volume of complete media per well). After cell adhesion the media was changed to serum-free media for overnight culture. Serum-free media was then replaced with 50 μl of dye loading solution, followed by incubation at 37° C. for 30 minutes and a baseline fluorimetric reading. Then, O1821, LER13, or vehicle were added to their respective wells at different concentrations and fluorescence read immediately in a Fluoroskan Ascent Microplate Fluorometer (Thermo Scientific) with settings appropriate for excitation at 494 nm and emission at 516 nm.

The next experiment deals with FLS. Briefly: FLS invasion, focused library screen (Table 1). Format: cell-based. The note with it: evaluated over 24 hours in vitro. Here is the method:
The in vitro invasiveness of FLS was assayed in a transwell system using Matrigel-coated inserts (BD Biosciences, Franklin Lakes, N.J.), as previously described (Tolboom et al., “Invasiveness of Fibroblast-Like Synoviocytes is an Individual Patient Characteristic Associated with the Rate of Joint Destruction in Patients with Rheumatoid Arthritis,” Arthritis Rheum. 52 (7):1999-2002 (2005); Laragione et al., “The Arthritis Severity Locus Cia5d is a Novel Genetic Regulator of the Invasive Properties of Synovial Fibroblasts,” Arthritis Rheum. 58 (8):2296-2306 (2008), which are hereby incorporated by reference in their entirety). Briefly, 70-80% confluent cells were harvested by trypsin-EDTA digestion, and re-suspended at 2.0×10^4 cells in 500 μl of serum-free DMEM. Cells were placed in the upper compartment of the Matrigel-coated inserts. Where indicated, O1821, LER13, or vehicle was added to the upper chamber. The lower compartment was filled with complete media and the plates were incubated at 37° C. for 24 hours. After 24 hours the upper surface of the insert was wiped with cotton-swabs to remove non-invading cells and the Matrigel layer. The opposite side of the insert was stained with Crystal Violet (Sigma) and the total number of cells that invaded through Matrigel counted at 100× magnification. Experiments were done in duplicate.

The subject of experiment [1] is DBA1/J mice with collagen-induced arthritis. Briefly: Collagen induced arthritis (CIA). Format: in vivo, mouse. The note with it: for Arthritis severity (CIA): collagen-induced arthritis. The source says: CIA was induced in 8-week-old male DBA1/J mice (Jackson Laboratories) using a standard protocol (Courtenay et al., “Immunisation Against Heterologous Type II Collagen Induces Arthritis in Mice,” Nature 283 (5748):666-668 (1980); Nagler-Anderson et al., “Suppression of Type II Collagen-Induced Arthritis by Intragastric Administration of Soluble Type II Collagen,” Proc. Natl. Acad. Sci. U.S.A. 83 (19):7443-7446 (1986), which are hereby incorporated by reference in their entirety). Briefly, bovine type II collagen (Chondrex, Redmond, Wash.) was dissolved overnight in acetic acid 0.1 N and then homogenized at 1:1 with Complete Freund's Adjuvant (CFA, Difco, Detroit, Mich.). Anesthetized mice were injected intradermally with 100 μg of type II collagen emulsified in CFA in the tail. The new Trpv2 agonist LER13 (10 mg/Kg) or control vehicle (PBS 50%, PEG300 40%, PG 5%, PS80 5%) was started on day 10 (D10) and administered intra-peritoneally every-other-day (from D10 until day 55). On day 21 (D21), mice received a booster injection of 100 μg of type II collagen in incomplete Freund's adjuvant. Clinical signs of arthritis were evident on day 24 (D24).
Arthritis severity in CIA mice was scored using a modified scoring system based on Jirholt et al., “Genetic Linkage Analysis of Collagen-Induced Arthritis in the Mouse,” Eur. J. Immunol. 28 (10):3321-3328 (1998), which is hereby incorporated by reference in its entirety. Briefly, the modified scoring system ranged from 0-16 per mouse per day and included a functional component of disease severity (non-weight bearing) in the maximum score of 4 per paw. The arthritis severity index (ASI), which is the sum of all scores obtained during the observation period, was used to compare treatment groups as it provides a comprehensive assessment of arthritis severity over time, and correlates with histologic damage (Brenner et al., “The Non-MHC Quantitative Trait Locus Cia10 Contains a Major Arthritis Gene and Regulates Disease Severity, Pannus Formation and Joint Damage,” Arthritis Rheum. 52 (1):322-332 (2005); Brenner et al., “The Non-MHC Quantitative Trait Locus Cia5 Contains Three Major Arthritis Genes that Differentially Regulate Disease Severity, Pannus Formation, and Joint Damage in Collagen- and Pristane-Induced Arthritis,” J. Immunol. 174 (12):7894-7903 (2005), which are hereby incorporated by reference in their entirety).

In experiment [2] the test system is C57BL/6 mice with KRN serum transfer-induced arthritis. Briefly: KRN serum transfer induced arthritis (clinical scores and histology). The note with it: KRN serum induced arthritis. The class given is in vivo, mouse. Here is the method: Seven to eight week-old C57BL/6 male mice (Jackson Laboratories) received 200 μl of KRN arthritogenic serum (Ji et al, “Genetic Influences on the End-Stage Effector Phase of Arthritis,” J. Exp. Med. 194 (3):321-330 (2001), which is hereby incorporated by reference in its entirety) (KBN TCR transgenic mice were a kind gift from Christophe Benoist and have been intercrossed with NOD at the Feinstein Institute to generate KRN mice and the arthritogenic serum) intraperitoneal (IP) on day zero (D0) and day 2 (D2). After the onset of clear ankle arthritis (day 3; D3), mice were started on O1821 10 mg/Kg IP BID or control vehicle (DMSO in saline solution). Arthritis severity was scored according to the system reported by Jirholt et al., “Genetic Linkage Analysis of Collagen-Induced Arthritis in the Mouse,” Eur. J. Immunol. 28 (10):3321-3328 (1998), which is hereby incorporated by reference in its entirety, which includes a number of involved joints and a degree of inflammation (swelling/redness) in a scale of 0-12 per mouse per day.
[…] Histology slides were scored without knowledge of treatment and according to a comprehensive scoring system previously reported that includes parameters for synovial hyperplasia, inflammatory cell infiltration, and bone and cartilage erosions (Brenner et al., “The Non-MHC Quantitative Trait Locus Cia10 Contains a Major Arthritis Gene and Regulates Disease Severity, Pannus Formation and Joint Damage,” Arthritis Rheum. 52 (1):322-332 (2005), which is hereby incorporated by reference in its entirety).

Turning to `C=C(C)[C@@H]1CCC(C)=C[C@H]1c1c(O)cc(O)cc1O` [Compound 5], at Trpv2, the Calcium influx result is reported as “increased (25% less than O1821)”.
The same measure, in the same setting: then `C=C(C)[C@H]1CCC(C)=CC1c1c(/C=C/c2ccc(O)cc2)cc(O)c([C@@H]2C=C(C)CC[C@H]2C(=C)C)c1O` (some centres unmarked) [Compound 6], with “increased (similar to O1821)”.
For the molecule `C=C(C)[C@@H]1CCC(C)=CC1c1c(O)cc(Cl)cc1O` (some centres unmarked) [Compound 12], the “FLS invasion decreased by” value in the experiment on FLS was “Decreased by 100%”. In addition, the Calcium influx result at Trpv2 is “increased (20% greater than O1821)”. Also, in experiment [1], the “Arthritis severity (CIA)” value was “Not protective in CIA”.
For the molecule `C=C(C)[C@@H]1CCC(C)=CC1c1c(O)cc(F)cc1O` (some centres unmarked) [Compound 9], the Calcium influx entry on Trpv2 is “increased (similar to O1821)”.
As to `C=C(C)[C@@H]1CCC(C)=C[C@H]1c1c(O)cc(/C=C/c2ccc(O)cc2)cc1O` [Compound 7], at Trpv2, the Calcium influx result is given as “increased (50% less than O1821)”.
For the molecule `C=C(C)[C@H]1CCC(C)=CC1c1c(O)cc(O)cc1/C=C/c1ccc(O)cc1` (some centres unmarked) [Compound 8], the Calcium influx entry at Trpv2 is “increased (10% less than O1821)”.
Turning to `C=C(C)[C@H]1CCC(C)=CC1c1c(O)cc(O)c([C@@H]2C=C(C)CC[C@H]2C(=C)C)c1O` (some centres unmarked) [Compound 4], at Trpv2, the Calcium influx entry is listed as “increased (25% less than O1821)”.
In the case of `C=C(C)[C@H]1CCC(C)=CC1c1c(O)c(C2C=C(C)CC[C@H]2C(=C)C)c(O)c([C@@H]2C=C(C)CC[C@H]2C(=C)C)c1O` (some centres unmarked) [Compound 3], the Calcium influx result at Trpv2 was “increased (20% greater than O1821)”.
For the molecule `C=C(C)[C@@H]1CCC(C)=CC1c1c(O)cc(O)cc1Cl` (some centres unmarked) [Compound 11], the Calcium influx result on Trpv2 was “increased (20% greater than O1821)”.
Turning to “(1R,2″R,2R,2″S)-6′-ethynyl-5,5″-dimethyl-2,2″-di(prop-1-en-2-yl)-1,1″,2,2″,3,3″,4,4″-octahydro-[1,1′:3′,1″-terphenyl]-2′,4′-diol [Compound 13]”, the “Arthritis severity index (ASI), mean±S.D.” value in experiment [1] (10 mg/Kg IP every-other-day from D10, scoring to D76) stood at 40.7±36.8.
In the case of `C=C(C)[C@@H]1CCC(C)=C[C@H]1c1c(O)cc(C)cc1O` [Compound 1], the “FLS invasion decreased by” value in the experiment with FLS is reported as “Decreased by 30%”. Further, the “Arthritis severity (KRN)” value in experiment [2] is recorded as “Protective KRN”. For the same molecule, the Calcium influx result on Trpv2 is on record as “increased”.
With `C=C(C)[C@@H]1CCC(C)=CC1c1c(O)cc(O)cc1F` (some centres unmarked) [Compound 10], the “FLS invasion decreased by” value in the experiment on FLS is reported as “Decreased by 100%”. The “Arthritis severity (KRN)” value in experiment [2] is “Not protective KRN and CIA”. For the same molecule, the Calcium influx result on Trpv2 is “increased (20% greater than O1821)”. The “Arthritis severity (CIA)” value in experiment [1] was “Not protective KRN and CIA”.
In the case of `C=C(C)[C@@H]1CCC(C)=C[C@H]1c1c(C)cc(O)cc1O` [Compound 2], the Calcium influx result on Trpv2 is “increased (like DMSO, but less than O1821)”.
Regarding `C#Cc1cc(O)cc(O)c1C1C=C(C)CC[C@H]1C(=C)C` (some centres unmarked) [Compound 14], the “FLS invasion decreased by” value with FLS is “Decreased by 100%”. For the same molecule, in experiment [2], the “Arthritis severity (KRN)” value is “Not protective in KRN”. The Calcium influx entry on Trpv2 is recorded as “increased (20% greater than O1821)”.
